The target of one test is T1, Cathepsin K (Homo sapiens, UniProt P43235).
T1 sequence (P43235 whole entry): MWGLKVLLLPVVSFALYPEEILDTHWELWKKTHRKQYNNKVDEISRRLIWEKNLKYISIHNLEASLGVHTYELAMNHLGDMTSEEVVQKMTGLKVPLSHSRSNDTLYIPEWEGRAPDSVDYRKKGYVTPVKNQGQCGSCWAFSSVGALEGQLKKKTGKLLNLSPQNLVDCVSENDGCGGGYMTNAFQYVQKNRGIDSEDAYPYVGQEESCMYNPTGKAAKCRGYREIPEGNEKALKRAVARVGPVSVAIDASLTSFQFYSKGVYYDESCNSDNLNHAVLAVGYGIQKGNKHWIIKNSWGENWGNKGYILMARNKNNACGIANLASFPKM
Put plainly: Relative binding affinity was measured for Cathepsin K. Particulars: read-out: Ki app.

The target in test [1] is T2, Cathepsin K (Homo sapiens) (UniProt P43235).
T2 sequence (whole entry): T1 sequence (P43235 whole entry)
Put plainly: Second order rate constant was measured for the inhibition of Cathepsin K.

The text below walks through data of ChEMBL document CHEMBL1131128, “Structure-based design of cathepsin K inhibitors containing a benzyloxy-substituted benzoyl peptidomimetic” (J Med Chem, 1998).

Regarding `CCC[C@H](NC(=O)OCc1ccccc1)C(=O)NNC(=O)NNC(=O)[C@H](CC(C)C)NC(=O)OCc1ccccc1`, at Cathepsin K, the Ki was found to be 0.8 nM. The second-order inhibition rate constant (kobs/[I]) in test [1] was 4e+06 M⁻¹ s⁻¹.
Take `CC(C)C[C@H](NC(=O)OCc1ccccc1)C(=O)NNC(=O)NNC(=O)c1cccc(OCc2ccccc2)c1`: at Cathepsin K, the Ki was found to be 27 nM. The second-order inhibition rate constant (kobs/[I]) in test [1] worked out at 224000 M⁻¹ s⁻¹.
Turning to `CC(C)C[C@H](NC(=O)OCc1ccccc1)C(=O)NNC(=O)NNC(=O)c1ccc(OCc2ccccc2)cc1`, the Ki at Cathepsin K came to 100 nM. The compound further gave a second-order inhibition rate constant (kobs/[I]) in test [1] of 44000 M⁻¹ s⁻¹.
As for `CC(C)C[C@H](NC(=O)OCc1ccccc1)C(=O)NNC(=O)NNC(=O)c1ccccc1OCc1ccccc1`, the Ki at Cathepsin K stood at 12 nM. Further, the second-order inhibition rate constant (kobs/[I]) in test [1] is 318000 M⁻¹ s⁻¹.
Turning to `CC(C)C[C@H](NC(=O)OCc1ccccc1)C(=O)NNC(=O)NNC(=O)[C@H](CC(C)C)NC(=O)OCc1ccccc1`, the Ki on Cathepsin K came to 0.7 nM. This compound also gave a second-order inhibition rate constant (kobs/[I]) in test [1] of 3.1e+06 M⁻¹ s⁻¹.
The matching figures for `CC(C)C[C@H](NC(=O)OCc1ccccc1)C(=O)NNC(=O)NNC(=O)[C@H](C)NC(=O)OCc1ccccc1`: 1 nM and 685000 M⁻¹ s⁻¹.
As for `CC[C@H](NC(=O)OCc1ccccc1)C(=O)NNC(=O)NNC(=O)[C@H](CC(C)C)NC(=O)OCc1ccccc1`, the Ki at Cathepsin K was 3.4 nM. The compound further showed a second-order inhibition rate constant (kobs/[I]) in test [1] of 490000 M⁻¹ s⁻¹.
The corresponding values for `CC(C)C[C@H](NC(=O)OCc1ccccc1)C(=O)NNC(=O)NNC(=O)c1ccccc1` are 120 nM and 38000 M⁻¹ s⁻¹.
